This passage reports Ki and Progesterone production results from ChEMBL document CHEMBL1135787, “Synthesis of new molecular probes for investigation of steroid biosynthesis induced by selective interaction with peripheral type benzodiazepine receptors (PBR)” (J Med Chem, 2002).

Assay [1] concerns the target T1, Translocator protein (Rattus norvegicus, UniProt P16257). As to the kind of experiment: Inhibition of [3H]PK11195 binding to Peripheral type benzodiazepine receptor (PBR) in rat cortex homogenate by 50%.
In assay [2] the target is T1, Translocator protein. The experiment in a line: Inhibition of [3H]PK11195 binding to mitochondrial rat testis Peripheral type benzodiazepine receptor (PBR).
For assay [3], the target named is T1, Translocator protein. As to the kind of experiment: Inhibition of [3H]Ro-5-4864 binding to mitochondrial rat testis Peripheral type benzodiazepine receptor (PBR).
Assay [4] is described as follows: Stimulatory effect on progesterone biosynthesis in MA10 leydig cells. The format is functional, Mus musculus.

As a reminder, the Ki is a dissociation constant, usually derived from enzyme kinetics or from competition with a known ligand. Low readings indicate a stronger hold on the target, high ones a looser hold on the target.

T1 sequence (P16257 whole entry, looked up): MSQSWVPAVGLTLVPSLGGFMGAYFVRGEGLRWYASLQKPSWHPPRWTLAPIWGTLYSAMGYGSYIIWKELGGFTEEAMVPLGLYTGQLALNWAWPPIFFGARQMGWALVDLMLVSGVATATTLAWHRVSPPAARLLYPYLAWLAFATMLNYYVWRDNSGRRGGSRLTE

For the compound `CC(=O)OC1=C(c2cccc(C)c2)Oc2ccccc2-n2cccc21`, the affinity on Translocator protein [1] corresponds to a Ki of 2.5 nM.

`O=C(NC1CC1)OC1=C(c2ccccc2)Oc2ccccc2-n2cccc21`: the Ki on Translocator protein [2] turned out to be 0.31 nM; at Translocator protein [3] it was 0.47 nM; on Translocator protein [1], 2.21 nM. The Progesterone production in assay [4] is 3.5 ng 2hr-1 (10e5*cells)-1. In the case of `CCN(CC)C(=O)OC1=C(c2ccccc2)Oc2cccnc2-n2cccc21`, the Ki at Translocator protein [2] is 11 nM; at Translocator protein [3] it was 22 nM; on Translocator protein [1] it was 1.77 nM. In addition, in assay [4], the Progesterone production is 3.5 ng 2hr-1 (10e5*cells)-1. For `CCN(CC)C(=O)OC1=C(c2cccc(C)c2)Oc2ccccc2-n2cccc21`, the affinity at Translocator protein [1] corresponds to a Ki of 1.2 nM. As to `CCNC(=O)OC1=C(c2ccc(C)cc2)Oc2ccccc2-n2cccc21`, the Ki on Translocator protein [1] stood at 0.68 nM. With `CCNC(=O)OC1=C(c2ccccc2)Oc2ccccc2-n2cccc21`, the values for the Ki at Translocator protein [2], on Translocator protein [3] and on Translocator protein [1] were 0.2 nM, 0.1 nM and 0.11 nM, respectively. Also, the Progesterone production in assay [4] is 3.3 ng 2hr-1 (10e5*cells)-1. For the compound `CCN(C)C(=O)OC1=C(c2ccccc2)Oc2ccccc2-n2cccc21`, the Ki at Translocator protein [1] stood at 0.78 nM. Same read-out and setting: the figure for `CCN(CC)C(=O)OC1=C(c2cc(F)cc(F)c2)Oc2ccccc2-n2cccc21` is 1.26 nM. Still for that read-out and setting: the figure for `CCN(CC)C(=O)OC1=C(c2ccccc2)Cc2ccccc2-n2cccc21` is 5.7 nM; for `CCCCN(C)C(=O)OC1=C(c2ccccc2)Oc2ccccc2-n2cccc21` it is 0.92 nM; for `CCNC(=O)OC1=C(c2ccccc2)Oc2c(Cl)cccc2-n2cccc21` it is 0.18 nM. The same measure, in the same setting: the figure for `Cc1ccc(C2=C(OC(=O)N(C)C)c3cccn3-c3ncccc3O2)cc1` is 0.44 nM. Take `CCC(C)N(C)C(=O)c1cc2ccccc2c(-c2ccccc2Cl)n1` (configuration not stated) [PK-11195]: the Progesterone production in assay [4] is 3.4 ng 2hr-1 (10e5*cells)-1. With `CCCNC(=O)OC1=C(c2ccccc2)Oc2ccccc2-n2cccc21`, at Translocator protein [1], the inhibition constant (Ki) worked out at 0.91 nM. The same measure, in the same setting: the figure for `CCCN(C)C(=O)OC1=C(c2ccccc2)Oc2ccccc2-n2cccc21` is 0.69 nM; for `CCN(CC)C(=O)OC1=C(c2cccs2)Oc2cccnc2-n2cccc21` it is 0.23 nM.

For the compound `O=C(OC1=C(c2ccccc2)Oc2ccccc2-n2cccc21)N1CCC1`, the inhibition constant (Ki) amounted to 6 nM at Translocator protein [2], 4.3 nM at Translocator protein [3] and 6.03 nM at Translocator protein [1]. In addition, the Progesterone production in assay [4] is 3.5 ng 2hr-1 (10e5*cells)-1.

With `CN1CCN(C(=O)OC2=C(c3ccccc3)Oc3ccccc3-n3cccc32)CC1`, the values for the Ki at Translocator protein [2], on Translocator protein [3] and on Translocator protein [1] were 29 nM, 15 nM and 7.2 nM, respectively. For the same compound, in assay [4], the Progesterone production is on record as 3.8 ng 2hr-1 (10e5*cells)-1.

For `O=C1CN=C(c2ccccc2Cl)c2cc([N+](=O)[O-])ccc2N1` [CLONAZEPAM], the Progesterone production in assay [4] is 2.3 ng 2hr-1 (10e5*cells)-1.

Regarding `CCN(CC)C(=O)OC1=C(c2cccs2)Oc2ccccc2-n2cccc21`, the inhibition constant Ki on Translocator protein [1] is 11.5 nM.

On Translocator protein [1], `CC(=O)OC1=C(c2ccc(C)cc2)Oc2cccnc2-n2cccc21` showed a Ki of 13.5 nM. At Translocator protein [1], `CCN(CC)C(=O)OC1=C(c2cccc(C)c2)Oc2cccnc2-n2cccc21` showed an inhibition constant (Ki) of 0.56 nM.
